According to ChEMBL document CHEMBL5244230, “Artemisinin-derived hybrids and their anticancer activity” (Eur J Med Chem, 2020):

Assays:
SiHa = experiment: Cytotoxicity against human SiHa cells assessed as cell growth inhibition measured after 48 hrs by MTT assay; format: functional
B16 = experiment: Cytotoxicity against mouse B16 cells assessed as cell growth inhibition measured after 48 hrs by MTT assay; format: functional
[1] = Cytotoxicity against human U87 cells assessed as cell growth inhibition measured after 48 hrs by MTT assay; format: functional, U-87MG ATCC; conditions: U-87 MG
DLD-1 = experiment: Cytotoxicity against human DLD-1 cells assessed as cell growth inhibition measured after 48 hrs by MTT assay; format: functional
A 172 = experiment: Cytotoxicity against human A-172 cells assessed as cell growth inhibition measured after 48 hrs by MTT assay; format: functional
HeLa = experiment: Cytotoxicity against human HeLa cells assessed as cell growth inhibition measured after 48 hrs by MTT assay; format: functional

Compound | GI50 (SiHa) | GI50 (B16) | GI50 [1] | GI50 (DLD-1) | GI50 (A 172) | GI50 (HeLa)
C[C@H]1[C@H](n2nncc2-c2ccccc2)O[C@@H]2O[C@@]3(C)CC[C@H]4[C@H](C)CC[C@@H]1[C@@]24OO3 | 40 nM | 40 nM | 40 nM | 40 nM | 40 nM | 40 nM
C[C@H]1[C@H](n2cc(-c3cc(F)cc(F)c3)nn2)O[C@@H]2O[C@@]3(C)CC[C@H]4[C@H](C)CC[C@@H]1[C@@]24OO3 | 50 nM | 50 nM | 50 nM | 50 nM | 50 nM | 50 nM
C[C@@H]1[C@@H](n2cc(-c3ccc(F)cc3)nn2)O[C@@H]2O[C@@]3(C)CC[C@H]4[C@H](C)CC[C@@H]1[C@@]24OO3 | 30 nM | 30 nM | 30 nM | 30 nM | 30 nM | 30 nM
COc1ccc(-c2cnnn2[C@@H]2O[C@@H]3O[C@@]4(C)CC[C@H]5[C@H](C)CC[C@@H]([C@H]2C)[C@@]35OO4)cc1 | 40 nM | 40 nM | 40 nM | 40 nM | 40 nM | 40 nM
C[C@H]1[C@H](n2cc(-c3ccccc3C(F)(F)F)nn2)O[C@@H]2O[C@@]3(C)CC[C@H]4[C@H](C)CC[C@@H]1[C@@]24OO3 | 50 nM | 50 nM | 50 nM | 50 nM | 50 nM | 50 nM
C[C@H]1[C@H](n2nncc2-c2ccc(F)cc2)O[C@@H]2O[C@@]3(C)CC[C@H]4[C@H](C)CC[C@@H]1[C@@]24OO3 | 40 nM | 40 nM | 40 nM | 40 nM | 40 nM | 40 nM
C[C@@H]1[C@@H](n2cc(-c3ccccc3)nn2)O[C@@H]2O[C@@]3(C)CC[C@H]4[C@H](C)CC[C@@H]1[C@@]24OO3 | 30 nM | 30 nM | 30 nM | 30 nM | 30 nM | 30 nM
C[C@H]1[C@H](n2cc(-c3ccccc3)nn2)O[C@@H]2O[C@@]3(C)CC[C@H]4[C@H](C)CC[C@@H]1[C@@]24OO3 | 50 nM | 50 nM | 50 nM | 50 nM | 50 nM | 50 nM
C[C@@H]1CC[C@H]2[C@@H](C)C(n3cc(-c4ccc(F)cc4)nn3)O[C@@H]3O[C@@]4(C)CC[C@@H]1[C@]32OO4 (stereo partly drawn) | 50 nM | 50 nM | 50 nM | 50 nM | 50 nM | 50 nM
C[C@H]1[C@H](n2nncc2-c2cc(F)cc(F)c2)O[C@@H]2O[C@@]3(C)CC[C@H]4[C@H](C)CC[C@@H]1[C@@]24OO3 | 40 nM | 40 nM | 40 nM | 40 nM | 40 nM | 40 nM
C[C@@H]1[C@@H](n2cc(-c3cccc(Cl)c3)nn2)O[C@@H]2O[C@@]3(C)CC[C@H]4[C@H](C)CC[C@@H]1[C@@]24OO3 | 30 nM | 30 nM | 30 nM | 30 nM | 30 nM | 30 nM
CCCCCc1ccc(-c2cn([C@@H]3O[C@@H]4O[C@@]5(C)CC[C@H]6[C@H](C)CC[C@@H]([C@H]3C)[C@@]46OO5)nn2)cc1 | 50 nM | 50 nM | 50 nM | 50 nM | 50 nM | 50 nM
Cc1ccc(-c2cn(C3O[C@@H]4O[C@@]5(C)CC[C@H]6[C@H](C)CC[C@@H]([C@H]3C)[C@@]46OO5)nn2)cc1 (stereo partly drawn) | 50 nM | 50 nM | 50 nM | 50 nM | 50 nM | 50 nM
